In patent US4160097A, “1-(2-Phenylureylene)imidazoles” (Westwind Pharmaceuticals, Inc., priority 1977, dated 1979):
≈ marks a conversion by molar mass, not a printed value.

Key:
[1] = system: Trichophyton rubrum; assay: Antifungal activity, agar dilution method; type: cell-based, Trichophyton rubrum (ATCC No. 10218 and 14001); conditions: T. rubrum, read-out: Parts Per Million Inhibitions of T. rubrum
Method: (§1) various compounds of this invention display antifungal and anti-yeast activity.
(§2) In Table IX below are listed the antifungal activity of a number of compounds encompassed in the present invention. These were determined by the agar dilution method as described in Chapters 2 and 3 of Methods in Microbiology, Vol. 7B, edited by J. R. Norris and D. W. Ribbons, Academic Press, New York, 1972.

[2] = system: carrageenan rat paw edema; assay: Rat Paw Edema Assay, Oral Dosing; type: in vivo; conditions: 4 h, four hours after drug, read-out: % Difference from Control; for change in vivo at 100 mg/kg: 100 mg/kg oral; for change in vivo at 400 mg/kg: 400 mg/kg oral
Method: The anti-inflammatory activity of representative compounds of this invention was determined by the rat paw edema assay both by local administration (Table XI below) and by oral dosing (Table XII below). For the oral dosing, the procedure of C. A. Winter, E. A. Risley and G. W. Nuss, Proc. Soc. Exp. Biol. Med. III, 544 (1962) was employed with measurement taken four hours after the drug was administered. The local administration tests were carried out similarly except the irritant (carrageenan) and the test compound were injected simultaneously at time zero.
Tables XI and XII report the anti-inflammatory activity of the compounds tested as % difference in the edema or swelling as compared with the control. These Tables also give the response in many instances of more than one dose level of the same drug.

[3] = system: Trichophyton mentagrophytes; assay: Antifungal activity, agar dilution method; type: cell-based, Trichophyton mentagrophytes (ATCC No. 8757 and 9129); conditions: T. mentagrophytes, read-out: Parts Per Million Inhibitions of T. mentagrophytes
Method: as §1, §2

[4] = system: Trichophyton ajelloi; assay: Antifungal activity, agar dilution method; type: cell-based; conditions: Arthroderma uncinatum, T. ajelloi, read-out: Parts Per Million Inhibitions of T. ajelloi
Method: as §1, §2

[5] = system: cell-mediated immune response to the antigen, Mycobacterium tuberculosis H37Ra; assay: delayed hypersensitivity test; type: in vivo, mouse; conditions: Mus musculus, sc; mice; dose reducing edema of cell-mediated immune response by 60% vs control; read-out: D.H.S. (ED60)
Method: The immunosuppressant activities of the compounds of this invention were determined via the hemolysin test in mice and by the delayed hypersensitivity test. The hemolysin test used is that described in Methods in Immunology, edited by D. H. Campbell et al, W. A. Benjamin, New York 1963 pages 172-175, and measures humeral or antibody response. The delayed hypersensitivity test measures the effect of a test compound on the ability of a subject mouse to mount a cell-mediated immune response to the antigen, Mycobacterium tuberculosis H37Ra. The mouse is sensitized to the antigen by subcutaneous administration in the base of the tail. The development of the delayed hypersensitivity response may be measured at any time beginning six days after sensitization but is usually done on the ninth day as follows: The right hind paw is injected with purified protein derivative (tuberculin) while the left hind paw (control) receives physiological saline. Both paw volumes are measured after twenty-four hours and significant increase in the volume of the right hand paw is taken as a measure of an effective delayed hypersensitivity response. All compounds were administered by the subcutaneous route.
The D.H.S. (ED60) mg./kg. s.c. value appearing in column 3 is an expression of the effectiveness of the drug in reducing the edema that accompanies the cell-mediated immune response. It is a measure of the number of milligrams per kilogram of body weight of the drug administered subcutaneously which is required to reduce the edema of the cell-mediated immune response by 60% when compared to the control.

[6] = system: humeral or antibody response; assay: hemolysin test in mice; type: in vivo; conditions: Mus musculus, sc, dose reducing antibody activity by 50% vs control, read-out: HL(ED50)

| SMILES | MIC [1] [µg/mL] | change in vivo at 100 mg/kg [2] [%] | MIC [3] [µg/mL] | MIC [4] [µg/mL] | ED60 [5] [mg/kg] | ED50 [6] [mg/kg] | change in vivo at 400 mg/kg [2] [%] |
| --- | --- | --- | --- | --- | --- | --- | --- |
| c1ccc2c(c1)nc(C1CCC1)c1nccn12 [Compound 128] | 16 (≈ 71.7 µM) | -39 | – | – | – | – | – |
| COc1ccc(Nc2nc3ccccc3n3ccnc23)cc1 [Compound 186] | 100 (≈ 344 µM) | – | 100 (≈ 344 µM) | 100 (≈ 344 µM) | – | – | – |
| COc1cc(OC)cc(-c2nc3ccccc3n3ccnc23)c1 [Compound 139] | – | -22 | 100 (≈ 328 µM) | – | > 50 | 3 | -25 |
| CC(=O)Oc1ccc(-c2nc3ccccc3n3ccnc23)cc1 [Compound 163] | 100 (≈ 330 µM) | – | 100 (≈ 330 µM) | 100 (≈ 330 µM) | – | – | – |
| CCCCCCCCCC(=O)Oc1ccc(-c2nc3ccccc3n3ccnc23)cc1 [Compound 165] | 100 (≈ 241 µM) | – | 100 (≈ 241 µM) | 100 (≈ 241 µM) | – | – | – |
| CCCCCCCCCCCCCCCCCc1nc2ccccc2n2ccnc12 [Compound 120] | 1 (≈ 2.45 µM) | – | – | – | – | – | – |
| Cc1ccc(-c2nc3ccccc3n3ccnc23)cc1 [Compound 134] | – | -43 | 16 (≈ 61.7 µM) | 100 (≈ 386 µM) | 7.2 | 0.5 | – |
| CCCCCCCCCCCCCCCc1nc2ccccc2n2ccnc12 [Compound 119] | 8 (≈ 21.1 µM) | – | – | – | – | – | – |
| c1ccc2c(c1)nc(NC1CCCCC1)c1nccn12 [Compound 167] | 100 (≈ 375 µM) | – | 100 (≈ 375 µM) | 100 (≈ 375 µM) | – | – | – |
| c1ccc(-c2ccc(-c3nc4ccccc4n4ccnc34)cc2)cc1 [Compound 135] | – | – | 100 (≈ 311 µM) | 100 (≈ 311 µM) | 0.22 | 0.033 | – |
| COc1ccc(-c2nc3ccccc3n3ccnc23)cc1 [Compound 138] | – | – | 100 (≈ 363 µM) | 100 (≈ 363 µM) | 27 | 0.72 | – |
| CC(C)(C)c1ccc(C(=O)Nc2ccccc2-n2ccnc2)cc1 [Compound 39] | – | -50 | 100 (≈ 313 µM) | 100 (≈ 313 µM) | – | – | – |
| CCCCCCCCC(=O)Nc1ccccc1-n1ccnc1 [Compound 9] | 16 (≈ 53.4 µM) | – | 16 (≈ 53.4 µM) | – | – | – | – |
| COc1cccc(Nc2nc3ccccc3n3ccnc23)c1 [Compound 185] | 100 (≈ 344 µM) | – | 100 (≈ 344 µM) | 100 (≈ 344 µM) | – | – | – |
| CCCCCCCCc1nc2ccccc2n2ccnc12 [Compound 117] | – | -7 | – | – | 46 | > 50 | -18 |
| O=C(Nc1ccccc1-n1ccnc1)c1cccc(Br)c1 [Compound 59] | 100 (≈ 292 µM) | – | – | – | – | – | – |
| O=C(Nc1ccccc1-n1ccnc1)c1ccc2ccccc2c1 [Compound 62] | 100 (≈ 319 µM) | – | 100 (≈ 319 µM) | 100 (≈ 319 µM) | – | – | – |
| C=CCCCCCCCCc1nc2ccccc2n2ccnc12 [Compound 123] | 2 (≈ 6.51 µM) | 0 | – | – | – | – | -50 |
| O=[N+]([O-])c1ccc(Nc2nc3ccccc3n3ccnc23)cc1 [Compound 189] | 100 (≈ 328 µM) | – | – | 100 (≈ 328 µM) | – | – | – |
| Clc1cccc(-c2nc3ccccc3n3ccnc23)c1 [Compound 142] | – | – | 100 (≈ 357 µM) | – | 4.2 | 0.2 | – |

| SMILES | MIC [1] [µg/mL] | change in vivo at 100 mg/kg [2] [%] | MIC [3] [µg/mL] | MIC [4] [µg/mL] | ED60 [5] [mg/kg] | ED50 [6] [mg/kg] | change in vivo at 400 mg/kg [2] [%] |
| --- | --- | --- | --- | --- | --- | --- | --- |
| CCCCCCCCCC(=O)Nc1ccccc1-n1ccnc1 [Compound 10] | 16 (≈ 51 µM) | -30 | 16 (≈ 51 µM) | – | – | – | – |
| CCCCCCCCCc1nc2ccccc2n2ccnc12 [Compound 118] | 4 (≈ 13.5 µM) | – | 256 (≈ 867 µM) | – | 43 | > 50 | – |
| Cc1ccccc1C(=O)Nc1ccccc1-n1ccnc1 [Compound 35] | – | -50 | 16 (≈ 57.7 µM) | 100 (≈ 361 µM) | – | – | – |
| CCCc1nc2ccccc2n2ccnc12 [Compound 112] | 64 (≈ 303 µM) | -17 | 128 (≈ 606 µM) | – | – | – | -68 |
| c1ccc2c(-c3nc4ccccc4n4ccnc34)cccc2c1 [Compound 160] | 100 (≈ 339 µM) | – | 100 (≈ 339 µM) | 100 (≈ 339 µM) | – | – | – |
| CCCCCCCC(=O)Nc1ccccc1-n1ccnc1 [Compound 8] | 8 (≈ 28 µM) | -22 | 8 (≈ 28 µM) | – | – | – | -13 |
| O=[N+]([O-])c1ccc(-c2nc3ccccc3n3ccnc23)cc1 [Compound 151] | 1 (≈ 3.44 µM) | – | – | – | 1.52 | 0.3 | – |
| CCCCNc1nc2ccccc2n2ccnc12 [Compound 168] | 100 (≈ 416 µM) | – | 100 (≈ 416 µM) | 100 (≈ 416 µM) | – | – | – |
| COc1ccccc1Nc1nc2ccccc2n2ccnc12 [Compound 184] | 100 (≈ 344 µM) | – | 100 (≈ 344 µM) | 100 (≈ 344 µM) | – | – | – |
| CCCCCCCc1nc2ccccc2n2ccnc12 [Compound 116] | 16 (≈ 59.8 µM) | 104 | 16 (≈ 59.8 µM) | – | 56 | > 50 | -18 |
| Fc1ccc(Nc2nc3ccccc3n3ccnc23)cc1 [Compound 182] | 100 (≈ 359 µM) | – | – | – | – | 1.1 | – |
| C(=Cc1nc2ccccc2n2ccnc12)c1ccccc1 [Compound 127] | 16 (≈ 59 µM) | – | 16 (≈ 59 µM) | – | 36 | > 50 | – |
| FC(F)(F)c1cccc(-c2nc3ccccc3n3ccnc23)c1 [Compound 136] | – | -9 | 100 (≈ 319 µM) | – | > 50 | 2.7 | -25 |
| Cc1ccccc1-c1nc2ccccc2n2ccnc12 [Compound 132] | – | -76 | 100 (≈ 386 µM) | 100 (≈ 386 µM) | – | – | – |
| Fc1ccc(-c2nc3ccccc3n3ccnc23)cc1 [Compound 147] | – | -39 | – | – | 1.7 | 0.027 | – |
| C=CCCCCCCCCC(=O)Nc1ccccc1-n1ccnc1 [Compound 16] | 2 (≈ 6.15 µM) | – | 4 (≈ 12.3 µM) | – | – | – | – |
| O=[N+]([O-])c1ccccc1Nc1nc2ccccc2n2ccnc12 [Compound 187] | 100 (≈ 328 µM) | – | – | 100 (≈ 328 µM) | – | – | – |
| CC(C)(C)c1ccc(-c2nc3ccccc3n3ccnc23)cc1 [Compound 137] | – | -26 | 100 (≈ 332 µM) | 100 (≈ 332 µM) | 3.2 | < 0.125 | – |
| O=C(C=Cc1ccccc1)Nc1ccccc1-n1ccnc1 [Compound 20] | – | -59 | 100 (≈ 346 µM) | 100 (≈ 346 µM) | – | – | – |
